Data from patent publication US11851391B2, “Antifungal compounds and methods of forming the same” (University of Kentucky Research Foundation, priority 2018, dated 2023).
“Also recorded” adds a separate entry of the source.

Tests used:
[1] = tested on: C. albicans ATCC 64124 (strain B); assay: Time-kill assay; type: cell-based, Candida albicans
Excerpt: (§1) To determine the fungistatic or fungicidal nature of the compounds, time-kill assays were next performed over a 24-hour period with 4,4′-bis((E)-1-(2-(4-fluorophenyl)hydrazono)ethyl)-1,1′-biphenyl (17c).
(§2) Time-kill assays were used to assess the inhibitory efficiency of compound 17c against two yeast strains, C. albicans ATCC 10231 (strain A) and C. albicans ATCC 64124 (strain B). The protocol for time-kill assays followed methods previously described with minor modifications. Yeast cultures were grown overnight in YPD medium at 35° C. with shaking at 200 rpm. A working stock of fungal cells was made by diluting cultures in RPMI 1640 medium to an OD600 of 0.125 (˜1×10^6 CFU/mL). From the working stock, 100 μL of cells were added to 4.9 mL of RPMI 1640 medium in sterile culture tubes, making the starting fungal cell concentration […]. Compounds were then added to the fungal cells. […] The treated fungal cultures were incubated at 35° C. with 200 rpm shaking for 24 h. Samples were aliquoted from the different treatments at regular time points (0, 3, 6, 9, 12, and 24 h) and plated in duplicate. For each time point, cultures were vortexed, 100 μL of culture were aspirated, and 10-fold serial dilutions were made in sterile ddH2O. From the appropriate dilutions, 100 μL of fungal suspension was spread onto PDA plates and incubated at 35° C. for 48 h before colony were counted. At 24 h, 50 μL of 1 mM resazurin in PBS was added to the treatments and incubated at 35° C. with 200 rpm shaking for 2 h in the dark for visual inspection (FIGS. 5A-D). Experiments were performed in duplicate.

[2] = tested on: C. albicans ATCC 10231 (strain A); assay: Time-kill assay; type: cell-based, Candida albicans
Excerpt: as §1, §2

C/C(=N\Nc1ccc(F)cc1)c1ccc(-c2ccc(/C(C)=N/Nc3ccc(F)cc3)cc2)cc1 [Compound 17c, 4,4′-bis((E)-1-(2-(4-fluorophenyl)hydrazono)ethyl)-1,1′-biphenyl]
reduction in fungal growth compared with VOR ([1]; 17c at equal to or one-half of the MIC value versus VOR at the MIC value): greater reduction in fungal growth
fungistatic or fungicidal nature ([1]; 24-hour period, up to twice its MIC value): fungistatic; also recorded: more fungistatic than the control drug VOR
reduction in fungal growth compared with VOR ([2]; 17c at one-half of the MIC value versus VOR at the MIC value): greater reduction in fungal growth
fungistatic or fungicidal nature ([2]; 24-hour period, 0.5x, 1x, 2x MIC): fungistatic; also recorded: more fungistatic than the control drug VOR
